Patent US4868181A, “1,4-dihydropyridine derivatives with calcium agonist and alpha1 -antagonist activity” (E. I. Du Pont de Nemours and Company, priority 1987, dated 1989)

Tests used:
Ca^2 + channels = target: T1, Ca^2 + channels (Rattus norvegicus, UniProt P22002); test: [^3 H]-Nitrendipine binding assay (affinity for calcium channels); conditions: rat cardiac microsomes, 0.5 nM [^3 H]-nitrendipine, 60 minutes at 25°
T1 construct: rat cardiac microsomes (source of Ca^2 + channels); from tissue; host or cells: rat cardiac microsomes
Procedure: [^3 H]-Nitrendipine binding assay was carried out according to the method described by G. T. Bolger, et al., Biochem. Biophys. Res. Comm., 104, 1604-1609, 1982 (1). The reaction mixture contained rat cardiac microsomes (source of Ca^2 + channels), 0.5 nM [^3 H]-nitrendipinewith or without potential displacer in Tris buffer. The mixture was incubated for 60 minutes at 25° and subsequently terminated by rapid filtration through a glass fiber-filter. Membrane-bound [^3 H]-nitrendipine trapped in the filter was quantitated by scintillation counting. The inhibitory concentration (IC50) of potential displacer which gives 50% displacement of the total specifically bound [^3 H]-nitrendipine is presented as a measure of the affinity of such compound for the Ca^2 + channel.

alpha1 -adrenoceptors = test: [^3 H]-prazosin binding assay (affinity for alpha1-adrenoceptors); conditions: rat brain membranes, 0.2 nM [^3 H]-prazosin, 60 minutes at 25°
Procedure: The [^3 H]-prazosin binding assay was carried out according to the method described by Timmermans, P. B. M. W. M., Schoop, A. M. C., and Van Zwieten, P. A.: Biochem Pharmacol., 31, 899-905, 1982 (1). The reaction mixture contained partially purified rat brain membranes (source of alpha1 -adrenoceptors), 0.2 nM [^3 H]-prazosin with or without potential displacer in Tris buffer. The mixture was incubated for 60 minutes at 25° and subsequently terminated by rapid filtration through glass fiber-filter. Receptor-bound [^3 H]-prazosin trapped in the filter was quantitated by scintillation counting. The inhibitory concentration (IC50) of potential displacer which gives 50% displacement of the total specifically bound [^3 H]-prazosin is presented as a measure of the affinity of such compound for the alpha1 -adrenoceptor.

guinea pig left atria = test: Positive inotropic effect in guinea pig left atria; conditions: 37°
Procedure: Guinea pigs are killed by cervical dislocation. The left atria are removed and mounted at 1 gm resting tension in tissue baths containing oxygenated Krebs bicarbonate solution which is kept at 37°. The left atria are electrically paced at 2Hz with square wave pulses of 1 msec duration. The voltage is set at 1.5× threshold level.
After a one hour equilibration period, control values for developed tension (DT, gm) are recorded. Test compounds are then added to the baths, in a cumulative manner to a maximum concentration of 10^-4, to obtain a concentration-response curve. Treatment values of DT are obtained after the rug effect has reached a plateau and the exposure time for each concentration is 5-8 minutes. Percent change of the treatment value from the control value is calculated at each concentration of the test compound.

T1 sequence (P22002 whole entry, other chains not shown): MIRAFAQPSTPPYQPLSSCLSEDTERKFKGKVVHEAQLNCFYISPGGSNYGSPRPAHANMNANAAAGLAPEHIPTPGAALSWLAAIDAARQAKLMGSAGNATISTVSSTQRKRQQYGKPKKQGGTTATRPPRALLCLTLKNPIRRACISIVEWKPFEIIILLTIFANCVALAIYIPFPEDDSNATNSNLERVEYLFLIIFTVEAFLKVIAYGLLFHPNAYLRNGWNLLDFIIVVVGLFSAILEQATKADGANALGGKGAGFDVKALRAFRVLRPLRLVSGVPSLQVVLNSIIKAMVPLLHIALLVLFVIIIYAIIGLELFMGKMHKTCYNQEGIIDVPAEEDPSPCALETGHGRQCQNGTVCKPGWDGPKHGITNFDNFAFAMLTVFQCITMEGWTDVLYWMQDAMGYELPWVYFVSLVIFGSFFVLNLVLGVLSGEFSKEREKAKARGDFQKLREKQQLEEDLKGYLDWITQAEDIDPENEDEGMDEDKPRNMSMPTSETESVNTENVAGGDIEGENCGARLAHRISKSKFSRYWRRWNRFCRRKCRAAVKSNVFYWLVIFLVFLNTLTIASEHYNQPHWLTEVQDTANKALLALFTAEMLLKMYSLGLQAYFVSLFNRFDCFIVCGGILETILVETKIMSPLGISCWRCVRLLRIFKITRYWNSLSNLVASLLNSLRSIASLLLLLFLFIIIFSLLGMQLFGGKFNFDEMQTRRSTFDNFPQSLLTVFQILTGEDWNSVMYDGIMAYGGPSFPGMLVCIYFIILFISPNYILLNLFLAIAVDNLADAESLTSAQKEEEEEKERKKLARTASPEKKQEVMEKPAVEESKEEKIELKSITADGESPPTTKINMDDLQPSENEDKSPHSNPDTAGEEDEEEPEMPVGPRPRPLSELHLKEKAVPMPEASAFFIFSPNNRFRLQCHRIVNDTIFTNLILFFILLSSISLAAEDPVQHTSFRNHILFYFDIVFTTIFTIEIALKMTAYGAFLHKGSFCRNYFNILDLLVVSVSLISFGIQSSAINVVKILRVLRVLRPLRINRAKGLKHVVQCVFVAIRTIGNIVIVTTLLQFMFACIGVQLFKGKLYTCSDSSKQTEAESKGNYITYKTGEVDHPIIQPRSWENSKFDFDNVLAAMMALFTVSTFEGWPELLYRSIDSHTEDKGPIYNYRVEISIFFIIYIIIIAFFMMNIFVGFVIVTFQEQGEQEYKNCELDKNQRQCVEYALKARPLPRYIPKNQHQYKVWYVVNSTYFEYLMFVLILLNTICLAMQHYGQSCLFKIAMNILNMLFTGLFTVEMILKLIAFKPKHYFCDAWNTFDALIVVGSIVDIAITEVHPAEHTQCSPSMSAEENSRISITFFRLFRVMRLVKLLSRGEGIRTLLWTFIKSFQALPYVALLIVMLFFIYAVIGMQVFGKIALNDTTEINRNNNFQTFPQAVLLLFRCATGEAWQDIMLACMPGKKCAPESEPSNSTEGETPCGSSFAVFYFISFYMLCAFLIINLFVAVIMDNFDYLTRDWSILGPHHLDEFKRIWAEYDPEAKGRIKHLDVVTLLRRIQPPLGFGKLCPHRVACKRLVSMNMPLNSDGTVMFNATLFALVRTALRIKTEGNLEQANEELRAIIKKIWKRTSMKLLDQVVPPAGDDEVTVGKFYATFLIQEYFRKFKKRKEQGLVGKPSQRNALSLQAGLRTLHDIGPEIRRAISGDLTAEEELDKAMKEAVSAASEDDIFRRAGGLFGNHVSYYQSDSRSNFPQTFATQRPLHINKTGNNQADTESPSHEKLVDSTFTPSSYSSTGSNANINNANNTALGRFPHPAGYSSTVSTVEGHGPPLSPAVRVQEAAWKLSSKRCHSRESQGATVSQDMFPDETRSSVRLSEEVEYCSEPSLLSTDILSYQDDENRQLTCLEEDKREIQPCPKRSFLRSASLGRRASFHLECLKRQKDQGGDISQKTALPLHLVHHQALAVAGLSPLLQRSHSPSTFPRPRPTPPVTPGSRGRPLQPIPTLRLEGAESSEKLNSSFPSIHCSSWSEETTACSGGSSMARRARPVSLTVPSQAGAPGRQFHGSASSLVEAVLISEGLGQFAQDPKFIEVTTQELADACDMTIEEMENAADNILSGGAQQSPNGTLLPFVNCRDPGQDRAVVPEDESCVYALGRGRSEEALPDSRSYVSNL
T1 sequence (P54290 25-944 partner limits assumed, other chains not shown): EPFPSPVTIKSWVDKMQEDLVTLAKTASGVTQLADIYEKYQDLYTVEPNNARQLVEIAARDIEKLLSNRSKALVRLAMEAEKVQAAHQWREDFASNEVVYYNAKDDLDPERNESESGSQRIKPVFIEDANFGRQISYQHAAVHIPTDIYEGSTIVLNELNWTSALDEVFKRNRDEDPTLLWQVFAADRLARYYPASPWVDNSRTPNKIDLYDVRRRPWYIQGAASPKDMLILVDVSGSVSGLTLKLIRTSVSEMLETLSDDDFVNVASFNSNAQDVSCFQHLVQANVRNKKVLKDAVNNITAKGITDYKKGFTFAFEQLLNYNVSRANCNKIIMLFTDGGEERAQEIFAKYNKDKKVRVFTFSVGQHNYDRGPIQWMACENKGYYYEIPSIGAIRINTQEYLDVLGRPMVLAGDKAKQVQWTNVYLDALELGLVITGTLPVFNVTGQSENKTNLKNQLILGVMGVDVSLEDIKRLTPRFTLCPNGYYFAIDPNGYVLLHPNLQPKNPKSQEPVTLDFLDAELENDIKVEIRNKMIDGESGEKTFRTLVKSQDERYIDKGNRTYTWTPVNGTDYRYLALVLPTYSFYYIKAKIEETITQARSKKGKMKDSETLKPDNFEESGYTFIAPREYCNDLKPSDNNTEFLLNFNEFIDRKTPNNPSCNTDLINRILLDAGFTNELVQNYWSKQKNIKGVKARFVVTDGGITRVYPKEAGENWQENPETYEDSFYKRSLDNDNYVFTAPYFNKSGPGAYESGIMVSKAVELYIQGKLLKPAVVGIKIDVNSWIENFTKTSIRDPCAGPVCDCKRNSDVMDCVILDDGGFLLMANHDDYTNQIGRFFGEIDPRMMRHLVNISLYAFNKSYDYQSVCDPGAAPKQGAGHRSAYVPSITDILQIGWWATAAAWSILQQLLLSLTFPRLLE
T1 sequence (P54290 945-1091 partner limits assumed, other chains not shown): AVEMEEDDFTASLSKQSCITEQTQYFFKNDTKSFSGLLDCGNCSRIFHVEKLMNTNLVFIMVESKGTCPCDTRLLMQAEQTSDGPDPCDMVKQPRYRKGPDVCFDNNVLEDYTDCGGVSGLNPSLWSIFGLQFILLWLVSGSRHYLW

Row | SMILES | IC50 (Ca^2 + channels) [nM] | IC50 (alpha1 -adrenoceptors) [nM] | EC50 (guinea pig left atria; left atria paced at 2Hz, cumulative addition to maximum 10^-4, read-out: EC50 (concentration that increases DT by 50% above the control DT)) [nM] | Intrinsic Activity (ratio of the maximum effect of the test compound to that of Bay K 8644) (guinea pig left atria; relative to Bay K 8644, left atria paced at 2Hz) [%]
1 | COC(=O)C1=C(C)NC(C)=C([N+](=O)[O-])C1c1ccccc1OCC=CCN1CCN(c2ccccc2OC)CC1 (centres unmarked) [Example 119] | 800 | 490 |  | 
2 | COC(=O)C1=C(C)NC(C)=C([N+](=O)[O-])C1c1ccc(OCCCN2CCN(c3ccccc3OC)CC2)c([N+](=O)[O-])c1 (centres unmarked) [Example 137] | 6100 | 440 |  | 
3 | COc1ccccc1N1CCN(CCCCOc2ccccc2C2C(C(=O)OC(C)C)=C(C)NC(C)=C2[N+](=O)[O-])CC1 (centres unmarked) [Example 133] | 420 | 750 |  | 
4 | COc1ccccc1N1CCN(CCOC(=O)C2=C(C)NC(C)=C([N+](=O)[O-])C2c2cccc(C(F)(F)F)c2)CC1 (centres unmarked) [Example 1, 1,4-Dihydro-2,6-dimethyl-5-nitro-4-[3-(trifluoromethyl)phenyl]-[2-[4-(2-methoxyphenyl)-1-piperazinyl]ethyl]ester-3-pyridinecarboxylic acid] |  | 960 | 27000 | 30
5 | COc1ccccc1N1CCN(CCCOc2ccccc2C2C(C(=O)OC(C)C)=C(C)NC(C)=C2[N+](=O)[O-])CC1 (centres unmarked) [Example 134] | 8400 | 340 |  | 
6 | COC(=O)C1=C(C)NC(C)=C([N+](=O)[O-])C1c1cc([N+](=O)[O-])ccc1OCCCCN1CCN(c2ccccc2OC)CC1 (centres unmarked) [Example 138] | 220 | 280 |  | 
7 | COC(=O)C1=C(C)NC(C)=C([N+](=O)[O-])C1c1cccc(OCC#CCN2CCN(c3ccccc3OC)CC2)c1 (centres unmarked) [Example 127] | 2000 | 2700 |  | 
8 | COC(=O)C1=C(C)NC(C)=C([N+](=O)[O-])C1c1cccc(OCCCCN2CCN(c3ccccc3OC)CC2)c1[N+](=O)[O-] (centres unmarked) [Example 150] | 4000 | 220 |  | 
9 | COC(=O)C1=C(C)NC(C)=C([N+](=O)[O-])C1c1cccc(OCCCN2CCN(c3ncccn3)CC2)c1 (centres unmarked) [Example 124] | 18000 | 1200 |  | 
10 | COC(=O)C1=C(C)NC(C)=C([N+](=O)[O-])C1c1ccccc1OCCCN1CCN(c2ccccc2C(F)(F)F)CC1 (centres unmarked) [Example 104] | 200 | 8600 |  | 
11 | COC(=O)C1=C(C)NC(C)=C([N+](=O)[O-])C1c1cccc(OCCCCCN2CCN(c3ccccc3OC)CC2)c1[N+](=O)[O-] (centres unmarked) [Example 151] | 4700 | 200 |  | 
12 | COC(=O)C1=C(C)NC(C)=C([N+](=O)[O-])C1c1cc(OCCN2CCN(c3ccccc3OC)CC2)ccc1[N+](=O)[O-] (centres unmarked) [Example 68] | 16000 | 590 |  | 
13 | CCOC(=O)C1=C(C)NC(C)=C([N+](=O)[O-])C1c1cccc(OCCCN2CCN(c3ccccn3)CC2)c1 (centres unmarked) [Example 126] | 5000 | 290 |  | 

More lines, main results first:

Row | IC50 (Ca^2 + channels) [nM] | IC50 (alpha1 -adrenoceptors) [nM] | EC50 (guinea pig left atria; left atria paced at 2Hz, cumulative addition to maximum 10^-4, read-out: EC50 (concentration that increases DT by 50% above the control DT)) [nM] | SMILES | Intrinsic Activity (ratio of the maximum effect of the test compound to that of Bay K 8644) (guinea pig left atria; relative to Bay K 8644, left atria paced at 2Hz) [%]
14 | 690 | 270 |  | COC(=O)C1=C(C)NC(C)=C([N+](=O)[O-])C1c1cc(OC)ccc1OCCCCN1CCN(c2ccccc2OC)CC1 (centres unmarked) [Example 152] | 
15 | > 10000 | > 10000 |  | COC(=O)C1=C(C)NC(C)=C([N+](=O)[O-])C1c1cccc(OCC2OC2CN2CCN(c3ccccc3OC)CC2)c1 (centres unmarked) [Example 136] | 
16 | 190 | 350 |  | COC(=O)C1=C(C)NC(C)=C([N+](=O)[O-])C1c1cc(Cl)ccc1OCCCCN1CCN(c2ccccc2OC)CC1 (centres unmarked) [Example 143] | 
17 | 180 | 630 |  | COC(=O)C1=C(C)NC(C)=C([N+](=O)[O-])C1c1cc(Cl)ccc1OCCCCCN1CCN(c2ccccc2OC)CC1 (centres unmarked) [Example 145] | 
18 | 630 | 830 |  | COC(=O)C1=C(C)NC(C)=C([N+](=O)[O-])C1c1cc(Cl)cc(Cl)c1OCCCCCN1CCN(c2ccccc2OC)CC1 (centres unmarked) [Example 141] | 
19 | 880 | 120 |  | COC(=O)C1=C(C)NC(C)=C([N+](=O)[O-])C1c1cc(OC)ccc1OCCCCCN1CCN(c2ccccc2OC)CC1 (centres unmarked) [Example 153] | 
20 | 1300 | 310 |  | C=CCc1cccc(C2C(C(=O)OC)=C(C)NC(C)=C2[N+](=O)[O-])c1OCCCCN1CCN(c2ccccc2OC)CC1 (centres unmarked) [Example 144] | 
